Each molecule was assayed against benzodiazepine receptor (assay: benzodiazepine receptor binding assay (NovaScreen), [3H]Flunitrazipam radioligand). Details: commercially available reference samples (Table 3 footnote).
Parameters: species or system bovine
Description: After the final compounds are formed using the inventive reaction apparatus, method and system, they are individually tested for biological activity once they are isolated. For example, the method of Sweetnam, et al, Molecular Pharmacology 1986; 29:299 employing bovine cortical membranes as a receptor source and a radiolabeled benzodiazepine, such as Flunitrazepam, to determine competitive ligand binding to the benzodiazepine receptor (central [brain] localized) and some quantitative measure of relative binding potency such as KD or IC50 values. Performing this type of assay serves two purposes: 1) to discover new compounds with biological activity in a given biological screening assay and 2) the development of a relationship between the structural variations contained within the series and biological potency. This second utility is known as development of a structure activity relationship (SAR). This type of assay can be done using the compounds isolated from the array synthesis for any receptor binding screen or assay (screening for receptor agonists or antagonists), enzyme functional assays (measuring competitive or noncompetitive inhibition of the catalyzed reaction), and the like. This strategy may be used to screen for pharmaceutical agents, veterinary agents, agricultural agents, diagnostic reagents, and the like.
To verify that the compounds produced could be used directly in a biological assay, the crude benzodiazepines are tested for activity in a benzodiazepine receptor binding assay without further purification. (The assay was performed using the commercially available NovaScreen® assay system contracted by Scios-Nova Pharmaceutical Corp., Baltimore, Md., whereby bovine cortical membrane preparations were used as the source of receptor and the radioligand employed was [^3 H]Flunitrazipam while the positive control was Clonazepam.) The calculated IC50 's from three concentrations (average of two determinations) for the individual compounds are shown in Table 3.

Row | Compound | IC50 [µM]
1 | CN1C(=O)CN=C(c2ccccc2)c2cc(Cl)ccc21 [Diazepam, reference compound] | 0.00067

Same assay, conditions: crude benzodiazepines without further purification; bovine cortical membranes; [3H]Flunitrazipam; calculated from three concentrations (average of two determinations)

Row | Compound | IC50 [µM]
2 | CC1N=C(c2ccccc2)c2ccccc2NC1=O (stereo not drawn) [Number 1] | 5.79
3 | CC1N=C(c2ccccc2)c2cc(Cl)ccc2NC1=O (stereo not drawn) [Number 2] | 0.089
4 | CC1N=C(c2ccccc2)c2cc([N+](=O)[O-])ccc2NC1=O (stereo not drawn) [Number 4] | 0.482
5 | CC1N=C(c2ccccc2)c2cc([N+](=O)[O-])ccc2N(C)C1=O (stereo not drawn) [Number 6] | 1
6 | CC1N=C(c2cccs2)c2ccccc2NC1=O (stereo not drawn) [Number 8] | 5.9
7 | O=C1CN=C(c2ccccc2)c2ccccc2N1 [Number 9] | 0.515
8 | O=C1CN=C(c2ccccc2)c2cc(Cl)ccc2N1 [Number 10] | 0.032
9 | COc1ccc(C2=NCC(=O)Nc3ccccc32)cc1 [Number 11] | 28.3
10 | O=C1CN=C(c2ccccc2)c2cc([N+](=O)[O-])ccc2N1 [Number 12] | 0.016
11 | Cc1ccc2c(c1)N(C(C)C)C(=O)CN=C2c1ccccc1 [Number 13] | 18.6
12 | CN1C(=O)CN=C(c2ccccc2)c2cc([N+](=O)[O-])ccc21 [Number 14] | 0.064
13 | O=C1CN=C(C2CCCCC2)c2ccccc2N1 [Number 15] | 25.7
14 | O=C1CN=C(c2cccs2)c2ccccc2N1 [Number 16] | 1.12
15 | O=C1Nc2ccc([N+](=O)[O-])cc2C(c2ccccc2)=NC1Cc1c[nH]c2ccccc12 (stereo not drawn) [Number 20] | 12.7

Same assay, conditions: crude benzodiazepines without further purification; bovine cortical membranes; [3H]Flunitrazipam; cells that print their own unit mM

Row | Compound | IC50 [µM]
16 | COc1ccc(C2=NC(C)C(=O)Nc3ccccc32)cc1 (stereo not drawn) [Number 3] | > 1000
17 | Cc1ccc2c(c1)N(C(C)C)C(=O)C(C)N=C2c1ccccc1 (stereo not drawn) [Number 5] | > 1000
18 | CC1N=C(C2CCCCC2)c2ccccc2NC1=O (stereo not drawn) [Number 7] | > 1000
19 | O=C1Nc2ccccc2C(c2ccccc2)=NC1Cc1c[nH]c2ccccc12 (stereo not drawn) [Number 17] | > 1000
20 | O=C1Nc2ccc(Cl)cc2C(c2ccccc2)=NC1Cc1c[nH]c2ccccc12 (stereo not drawn) [Number 18] | > 1000
21 | COc1ccc(C2=NC(Cc3c[nH]c4ccccc34)C(=O)Nc3ccccc32)cc1 (stereo not drawn) [Number 19] | > 1000
